Values quoted from earlier work, collected in patent US9693981B2 (INTEC PHARMA LTD., priority 2008, dated 2017).

Experiments:
[1] = high-fat/heavy meal compared to the fasted state, healthy adults
[2] = according to the USP 30

CCN(C(C)=O)c1cccc(-c2ccnc3c(C#N)cnn23)c1 [Zaleplon]
AUC [1]: not significantly affected | delay of Tmax [1]: approximately 2 hours | reduction of Cmax [1]: approximately 35% | solubility [2]: very slightly soluble
